Test results published in ChEMBL document CHEMBL2390893, “Natural product hybrid and its superacid synthesized analogues: dodoneine and its derivatives show selective inhibition of carbonic anhydrase isoforms I, III, XIII and XIV” (Bioorg Med Chem, 2013).
Active and inactive are the calls of the source. The calls are words filed in the database; no cut-off is given here.

How the values were obtained:
Carbonic anhydrase 3 [1] = molecular target: T1, Carbonic anhydrase 3 (Homo sapiens, UniProt P07451); assay: Inhibition of human carbonic anhydrase 3 preincubated for 15 mins by stopped flow CO2 hydrase assay
Carbonic anhydrase 4 [2] = molecular target: T2, Carbonic anhydrase 4 (Homo sapiens, UniProt P22748); assay: Inhibition of human carbonic anhydrase 4 preincubated for 15 mins by stopped flow CO2 hydrase assay
Carbonic anhydrase 9 [3] = molecular target: T3, Carbonic anhydrase 9 (Homo sapiens, UniProt Q16790); assay: Inhibition of human carbonic anhydrase 9 at >100 uM preincubated for 15 mins by stopped flow CO2 hydrase assay
[4] = molecular target: T4, Carbonic anhydrase 5B, mitochondrial (Homo sapiens, UniProt Q9Y2D0); assay: Inhibition of human carbonic anhydrase 5b at >100 uM preincubated for 15 mins by stopped flow CO2 hydrase assay
Carbonic anhydrase 12 [5] = molecular target: T5, Carbonic anhydrase 12 (Homo sapiens, UniProt O43570); assay: Inhibition of human carbonic anhydrase 12 at >100 uM preincubated for 15 mins by stopped flow CO2 hydrase assay
[6] = molecular target: T6, Carbonic anhydrase 5A, mitochondrial (Homo sapiens, UniProt P35218); assay: Inhibition of human carbonic anhydrase 5a at >100 uM preincubated for 15 mins by stopped flow CO2 hydrase assay
Carbonic anhydrase 1 [7] = molecular target: T7, Carbonic anhydrase 1 (Homo sapiens, UniProt P00915); assay: Inhibition of human carbonic anhydrase 1 preincubated for 15 mins by stopped flow CO2 hydrase assay
Target sequence in this assay (P00915 whole entry): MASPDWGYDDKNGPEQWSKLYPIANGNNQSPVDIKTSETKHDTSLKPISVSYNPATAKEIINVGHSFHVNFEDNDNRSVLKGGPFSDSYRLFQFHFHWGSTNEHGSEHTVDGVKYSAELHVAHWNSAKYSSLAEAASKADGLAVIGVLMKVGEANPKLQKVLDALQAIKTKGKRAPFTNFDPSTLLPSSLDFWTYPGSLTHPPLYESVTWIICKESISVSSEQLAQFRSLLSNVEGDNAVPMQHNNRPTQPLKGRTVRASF

Carbonic anhydrase 14 [8] = molecular target: T8, Carbonic anhydrase 14 (Homo sapiens, UniProt Q9ULX7); assay: Inhibition of human carbonic anhydrase 14 preincubated for 15 mins by stopped flow CO2 hydrase assay
[9] = molecular target: Carbonic anhydrase 6 (Homo sapiens) (UniProt P23280); assay: Inhibition of human carbonic anhydrase 6 at >100 uM preincubated for 15 mins by stopped flow CO2 hydrase assay
Carbonic anhydrase 13 = Carbonic anhydrase 13 (Mus musculus, UniProt Q9D6N1); assay: Inhibition of mouse carbonic anhydrase 13 preincubated for 15 mins by stopped flow CO2 hydrase assay
Carbonic anhydrase 7 [10] = molecular target: T9, Carbonic anhydrase 7 (Homo sapiens, UniProt P43166); assay: Inhibition of human carbonic anhydrase 7 at >100 uM preincubated for 15 mins by stopped flow CO2 hydrase assay
Carbonic anhydrase 2 [11] = molecular target: T10, Carbonic anhydrase 2 (Homo sapiens, UniProt P00918); assay: Inhibition of human carbonic anhydrase 2 at >100 uM preincubated for 15 mins by stopped flow CO2 hydrase assay
Carbonic anhydrase 7 [12] = molecular target: T9, Carbonic anhydrase 7; assay: Inhibition of human carbonic anhydrase 7 preincubated for 15 mins by stopped flow CO2 hydrase assay
[13] = molecular target: T6, Carbonic anhydrase 5A, mitochondrial; assay: Inhibition of human carbonic anhydrase 5a preincubated for 15 mins by stopped flow CO2 hydrase assay
Carbonic anhydrase 9 [14] = molecular target: T3, Carbonic anhydrase 9; assay: Inhibition of human carbonic anhydrase 9 preincubated for 15 mins by stopped flow CO2 hydrase assay
[15] = molecular target: T4, Carbonic anhydrase 5B, mitochondrial; assay: Inhibition of human carbonic anhydrase 5b preincubated for 15 mins by stopped flow CO2 hydrase assay
Carbonic anhydrase 12 [16] = molecular target: T5, Carbonic anhydrase 12; assay: Inhibition of human carbonic anhydrase 12 preincubated for 15 mins by stopped flow CO2 hydrase assay
Carbonic anhydrase 2 [17] = molecular target: T10, Carbonic anhydrase 2; assay: Inhibition of human carbonic anhydrase 2 preincubated for 15 mins by stopped flow CO2 hydrase assay
Carbonic anhydrase 3 [18] = molecular target: T1, Carbonic anhydrase 3; assay: Inhibition of human carbonic anhydrase 3 at >100 uM preincubated for 15 mins by stopped flow CO2 hydrase assay
Carbonic anhydrase 4 [19] = molecular target: T2, Carbonic anhydrase 4; assay: Inhibition of human carbonic anhydrase 4 at >100 uM preincubated for 15 mins by stopped flow CO2 hydrase assay
Carbonic anhydrase 14 [20] = molecular target: T8, Carbonic anhydrase 14; assay: Inhibition of human carbonic anhydrase 14 at >100 uM preincubated for 15 mins by stopped flow CO2 hydrase assay
Carbonic anhydrase 1 [21] = molecular target: T7, Carbonic anhydrase 1; assay: Inhibition of human carbonic anhydrase 1 at >100 uM preincubated for 15 mins by stopped flow CO2 hydrase assay
Target sequence in this assay (P00915 2-261 limits assumed): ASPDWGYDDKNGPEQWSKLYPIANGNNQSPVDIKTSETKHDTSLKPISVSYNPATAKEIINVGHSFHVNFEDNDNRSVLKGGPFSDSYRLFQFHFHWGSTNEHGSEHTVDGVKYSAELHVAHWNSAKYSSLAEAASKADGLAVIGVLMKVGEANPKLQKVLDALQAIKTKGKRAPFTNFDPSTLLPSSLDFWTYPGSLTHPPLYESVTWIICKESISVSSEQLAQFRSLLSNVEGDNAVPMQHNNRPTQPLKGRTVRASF

T5 sequence (O43570 whole entry): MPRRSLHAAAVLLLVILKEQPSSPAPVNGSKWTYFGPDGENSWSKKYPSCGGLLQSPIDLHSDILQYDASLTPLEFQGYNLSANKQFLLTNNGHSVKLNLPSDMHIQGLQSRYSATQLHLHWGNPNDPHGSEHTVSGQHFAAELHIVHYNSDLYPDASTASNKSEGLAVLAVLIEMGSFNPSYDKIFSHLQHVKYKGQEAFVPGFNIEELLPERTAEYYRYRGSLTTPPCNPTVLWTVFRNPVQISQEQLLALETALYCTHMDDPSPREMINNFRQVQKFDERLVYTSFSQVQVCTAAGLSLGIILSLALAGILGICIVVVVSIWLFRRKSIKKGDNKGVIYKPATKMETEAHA
T2 sequence (P22748 whole entry): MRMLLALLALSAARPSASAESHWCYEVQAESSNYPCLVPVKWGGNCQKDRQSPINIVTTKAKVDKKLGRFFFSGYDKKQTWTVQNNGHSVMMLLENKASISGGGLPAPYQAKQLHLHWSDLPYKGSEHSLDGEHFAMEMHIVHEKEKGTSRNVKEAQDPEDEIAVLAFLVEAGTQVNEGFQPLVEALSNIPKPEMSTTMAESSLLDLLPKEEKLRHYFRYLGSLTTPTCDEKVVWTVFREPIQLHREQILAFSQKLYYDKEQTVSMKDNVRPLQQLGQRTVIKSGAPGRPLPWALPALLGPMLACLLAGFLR
Sequence of Carbonic anhydrase 6 (Homo sapiens) (P23280 whole entry): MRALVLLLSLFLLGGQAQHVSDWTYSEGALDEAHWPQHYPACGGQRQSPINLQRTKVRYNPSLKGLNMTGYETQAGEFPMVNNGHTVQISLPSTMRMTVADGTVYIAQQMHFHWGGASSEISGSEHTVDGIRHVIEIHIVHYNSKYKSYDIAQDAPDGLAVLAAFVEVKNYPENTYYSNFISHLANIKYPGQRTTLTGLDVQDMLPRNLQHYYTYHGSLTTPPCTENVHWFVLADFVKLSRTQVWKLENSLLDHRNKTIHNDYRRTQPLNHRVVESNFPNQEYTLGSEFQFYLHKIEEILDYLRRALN
Sequence of Carbonic anhydrase 13 (Q9D6N1 whole entry): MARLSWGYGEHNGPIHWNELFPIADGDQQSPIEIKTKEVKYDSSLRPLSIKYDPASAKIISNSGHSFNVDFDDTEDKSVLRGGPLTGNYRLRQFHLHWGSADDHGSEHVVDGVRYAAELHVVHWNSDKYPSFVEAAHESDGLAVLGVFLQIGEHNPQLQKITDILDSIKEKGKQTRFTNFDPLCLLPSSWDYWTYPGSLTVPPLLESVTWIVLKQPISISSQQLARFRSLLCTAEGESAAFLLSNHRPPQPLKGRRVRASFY
T9 sequence (P43166 whole entry): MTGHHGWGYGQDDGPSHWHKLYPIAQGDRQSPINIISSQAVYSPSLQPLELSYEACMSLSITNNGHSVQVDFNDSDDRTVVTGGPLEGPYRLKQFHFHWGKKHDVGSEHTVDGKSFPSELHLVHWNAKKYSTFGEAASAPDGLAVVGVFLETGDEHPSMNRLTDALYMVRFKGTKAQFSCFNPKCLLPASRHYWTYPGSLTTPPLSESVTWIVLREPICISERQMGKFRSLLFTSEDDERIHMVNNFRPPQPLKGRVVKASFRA
T4 sequence (Q9Y2D0 whole entry): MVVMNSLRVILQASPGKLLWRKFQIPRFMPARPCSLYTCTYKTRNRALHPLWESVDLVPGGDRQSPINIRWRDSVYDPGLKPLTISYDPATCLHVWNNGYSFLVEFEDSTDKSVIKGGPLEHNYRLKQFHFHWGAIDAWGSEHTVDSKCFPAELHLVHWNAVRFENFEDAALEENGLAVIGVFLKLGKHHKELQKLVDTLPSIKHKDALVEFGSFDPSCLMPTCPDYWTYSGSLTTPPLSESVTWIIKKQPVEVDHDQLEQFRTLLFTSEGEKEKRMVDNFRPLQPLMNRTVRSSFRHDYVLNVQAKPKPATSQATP
T1 sequence (P07451 whole entry): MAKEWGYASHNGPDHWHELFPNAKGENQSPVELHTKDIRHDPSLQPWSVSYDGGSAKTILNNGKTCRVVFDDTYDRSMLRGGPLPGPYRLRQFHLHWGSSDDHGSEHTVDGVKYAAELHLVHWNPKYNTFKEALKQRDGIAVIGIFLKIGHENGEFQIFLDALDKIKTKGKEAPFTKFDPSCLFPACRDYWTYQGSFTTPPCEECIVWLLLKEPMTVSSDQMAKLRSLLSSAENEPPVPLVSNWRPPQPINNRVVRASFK
T8 sequence (Q9ULX7 whole entry): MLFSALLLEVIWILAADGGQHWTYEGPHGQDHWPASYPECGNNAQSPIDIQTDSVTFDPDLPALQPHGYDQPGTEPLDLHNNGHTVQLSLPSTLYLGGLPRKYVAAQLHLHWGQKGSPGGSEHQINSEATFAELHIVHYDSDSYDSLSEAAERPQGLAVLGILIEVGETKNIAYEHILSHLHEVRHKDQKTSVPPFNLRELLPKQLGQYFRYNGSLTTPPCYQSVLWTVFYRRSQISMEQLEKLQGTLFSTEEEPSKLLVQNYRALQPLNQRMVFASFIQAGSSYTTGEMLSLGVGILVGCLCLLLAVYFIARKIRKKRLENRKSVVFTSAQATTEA
T6 sequence (P35218 whole entry): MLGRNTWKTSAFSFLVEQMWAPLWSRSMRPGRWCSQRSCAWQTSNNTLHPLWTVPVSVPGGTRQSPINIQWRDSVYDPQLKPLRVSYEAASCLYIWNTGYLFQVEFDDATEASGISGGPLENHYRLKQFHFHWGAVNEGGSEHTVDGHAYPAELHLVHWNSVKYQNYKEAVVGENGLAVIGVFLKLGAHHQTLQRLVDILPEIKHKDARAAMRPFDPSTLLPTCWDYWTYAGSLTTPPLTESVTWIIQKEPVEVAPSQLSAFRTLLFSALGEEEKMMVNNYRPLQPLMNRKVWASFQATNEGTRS

With `O=C1C=CC[C@H](C[C@@H](O)CCc2ccc(O)cc2)O1` the Ki (Carbonic anhydrase 3 [1]) was 10.3 µM, the Ki (Carbonic anhydrase 4 [2]) was 9.61 µM and the inhibition (Carbonic anhydrase 9 [3]) was “inactive”. For the same molecule, the inhibition [4] was “inactive”, the inhibition (Carbonic anhydrase 12 [5]) was “inactive” and the inhibition [6] was “inactive”. For the same molecule, the Ki (Carbonic anhydrase 1 [7]) was 5.48 µM, the Ki (Carbonic anhydrase 14 [8]) was 9.34 µM and the inhibition [9] was “inactive”. The Ki (Carbonic anhydrase 13) was 9.27 µM, the inhibition (Carbonic anhydrase 7 [10]) was “inactive” and the inhibition (Carbonic anhydrase 2 [11]) was “inactive”.
With `O=C1C=CC[C@H](C[C@H](F)CCc2ccc(O)cc2)O1` the Ki (Carbonic anhydrase 7 [12]) was 24.9 µM, the Ki [13] was 7.13 µM and the Ki (Carbonic anhydrase 9 [14]) was 3.57 µM. The Ki (Carbonic anhydrase 4 [2]) was 5.36 µM, the Ki [15] was 1.36 µM and the Ki (Carbonic anhydrase 12 [16]) was 1.48 µM. For the same molecule, the Ki (Carbonic anhydrase 1 [7]) was 0.13 µM, the Ki (Carbonic anhydrase 2 [17]) was 36.9 µM and the Ki (Carbonic anhydrase 14 [8]) was 2.44 µM. For the same molecule, the inhibition [9] was “inactive”, the Ki (Carbonic anhydrase 13) was 0.96 µM and the inhibition (Carbonic anhydrase 3 [18]) was “inactive”.
`O=C1C[C@H]2C[C@H](C[C@H](CCc3ccc(O)cc3)O2)O1` was tested, and the inhibition (Carbonic anhydrase 4 [19]) was “inactive”, the Ki (Carbonic anhydrase 3 [1]) was 10.8 µM and the inhibition (Carbonic anhydrase 14 [20]) was “inactive”. For the same molecule, the inhibition (Carbonic anhydrase 9 [3]) was “inactive”, the inhibition [4] was “inactive” and the inhibition (Carbonic anhydrase 12 [5]) was “inactive”. For the same molecule, the inhibition [6] was “inactive”, the inhibition (Carbonic anhydrase 1 [21]) was “inactive” and the inhibition [9] was “inactive”. The Ki (Carbonic anhydrase 13) was 0.91 µM, the inhibition (Carbonic anhydrase 7 [10]) was “inactive” and the inhibition (Carbonic anhydrase 2 [11]) was “inactive”.
For `O=C1C=CC[C@H](C[C@@H](O)CCc2ccc(O)cc2O)O1`, the Ki [13] was 21.6 µM, the Ki (Carbonic anhydrase 9 [14]) was 32.6 µM and the Ki (Carbonic anhydrase 4 [2]) was 4.12 µM. The Ki [15] was 13.7 µM, the Ki (Carbonic anhydrase 12 [16]) was 24.5 µM and the Ki (Carbonic anhydrase 1 [7]) was 0.38 µM. For the same molecule, the Ki (Carbonic anhydrase 14 [8]) was 7.24 µM, the inhibition [9] was “inactive” and the Ki (Carbonic anhydrase 13) was 8.13 µM. The inhibition (Carbonic anhydrase 7 [10]) was “inactive”, the inhibition (Carbonic anhydrase 3 [18]) was “inactive” and the inhibition (Carbonic anhydrase 2 [11]) was “inactive”.
Molecule `O=C1C=CC[C@H](C[C@@H](O)CCc2cc(Br)c(O)cc2Br)O1` has a Ki [13] of 8.55 µM, a Ki (Carbonic anhydrase 9 [14]) of 15.7 µM and a Ki (Carbonic anhydrase 4 [2]) of 13.7 µM. It also gave a Ki [15] of 6.32 µM, a Ki (Carbonic anhydrase 12 [16]) of 10.8 µM and a Ki (Carbonic anhydrase 1 [7]) of 0.76 µM. The Ki (Carbonic anhydrase 2 [17]) was 21.8 µM, the Ki (Carbonic anhydrase 14 [8]) was 12.5 µM and the inhibition [9] was “inactive”. The Ki (Carbonic anhydrase 13) was 7.89 µM, the inhibition (Carbonic anhydrase 7 [10]) was “inactive” and the inhibition (Carbonic anhydrase 3 [18]) was “inactive”.
In the case of `O=C1C[C@H]2C[C@H](C[C@H](CCc3ccc(O)cc3O)O2)O1`, the inhibition (Carbonic anhydrase 4 [19]) is reported as “inactive”, the Ki (Carbonic anhydrase 3 [1]) is reported as 5.13 µM and the inhibition (Carbonic anhydrase 14 [20]) is reported as “inactive”. The inhibition (Carbonic anhydrase 9 [3]) was “inactive”, the inhibition [4] was “inactive” and the inhibition (Carbonic anhydrase 12 [5]) was “inactive”. The inhibition [6] was “inactive”, the inhibition (Carbonic anhydrase 1 [21]) was “inactive” and the inhibition [9] was “inactive”. The Ki (Carbonic anhydrase 13) was 0.34 µM, the inhibition (Carbonic anhydrase 7 [10]) was “inactive” and the inhibition (Carbonic anhydrase 2 [11]) was “inactive”.
